Assay results as given in publication PMC10167227, “Lipid flipping in the omega-3 fatty-acid transporter” (Nature Communications, 2023).

Target: T1, drMfsd2a (Danio rerio isoform B Mfsd2a) (Danio rerio, UniProt Q6DEJ6, N214Q/N225Q/N509Q)
T1 construct: gene mfsd2ab; recombinant in Sf-9 insect cells, N-terminal 10xHis tag removed by TEV; truncated at D22 and D509; DDM-purified
T1 sequence (Q6DEJ6 22-509 N214Q/N225Q/N509Q): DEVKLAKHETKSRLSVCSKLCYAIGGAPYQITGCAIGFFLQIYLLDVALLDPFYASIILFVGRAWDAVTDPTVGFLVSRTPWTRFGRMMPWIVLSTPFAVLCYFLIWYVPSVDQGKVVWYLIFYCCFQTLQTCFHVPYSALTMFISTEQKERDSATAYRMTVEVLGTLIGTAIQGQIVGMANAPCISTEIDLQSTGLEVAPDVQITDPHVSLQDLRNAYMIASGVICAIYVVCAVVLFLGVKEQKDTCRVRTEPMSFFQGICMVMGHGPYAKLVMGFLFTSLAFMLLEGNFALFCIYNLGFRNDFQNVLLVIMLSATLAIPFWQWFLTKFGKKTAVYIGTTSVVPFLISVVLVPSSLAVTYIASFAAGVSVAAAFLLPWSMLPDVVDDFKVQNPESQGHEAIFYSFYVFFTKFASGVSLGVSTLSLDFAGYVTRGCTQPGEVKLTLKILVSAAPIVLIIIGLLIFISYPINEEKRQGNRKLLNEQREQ
Test: single-particle cryo-EM structures of Fab complex
Type: binding
Settings: co-purified endogenous lipid; identity modelled into lipid-like densities at four positions (1A, 1B, 2B, 3C); inward-facing; pH 8.0, 150 mM NaCl, 0.02% DDM

CC/C=C\C/C=C\C/C=C\CCCCCCCC(=O)OC[C@@H](O)COP(=O)([O-])OCC[N+](C)(C)C [ALA-LPC]
single-particle cryo-EM structures of Fab complex: We therefore modeled ALA-LPC into the four distinct lipid-like densities
